# Values quoted from earlier work, collected in patent US10583082B2, “Composition comprising at least two dry powders obtained by spray drying to increase the stability of the formulation” (Eratech S.R.L., priority 2013, dated 2020).
# Details: from US 2001/0036481 A1
row,Compound,phospholipid transition temperature (Tg) with humidity
1,"CCCCCCCCCCCCCCCCCC(=O)OC[C@H](COP(=O)([O-])OCC[N+](C)(C)C)OC(=O)CCCCCCCCCCCCCCCCC [DSPC, distearoylphosphatidylcholine]",55 °C
2,"CCCCCCCCCCCCCCCC(=O)OC[C@H](COP(=O)([O-])OCC[N+](C)(C)C)OC(=O)CCCCCCCCCCCCCCC [DPPC, dipalmitoylphosphatidylcholine]",41 °C
3,"CCCCCCCCCCCCCCCC(=O)OCC(COP(=O)(O)OCCN)OC(=O)CCCCCCCCCCCCCCC (stereo not drawn) [DPPE, dipalmitoylphosphatidylethanolamine]",63 °C
